Experimental data reported in PubChem BioAssay AID1963434 (Molecular Pharmacology Branch, DTP, NCI, 2024).

Test system: 755483-174-R-J1-PDC complex spheroid growth, percent test/control
Assay: Anticancer human tumor 755483-174-R-J1-PDC patient-derived rhabdomyosarcoma cell line growth inhibition [Asc]
Conditions: for IC50: curve of first compound; for viability, T/C: stronger effect = lower value
Method in brief: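 Stromal components (HUVEC and hMSC) are co-assembled with the cancer cells into multicellular spheroids. Drugs are then added singly or paired, at concentrations falling by half-log increments from a clinically achievable maximum, capped at 10 microM without known Cmax.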

[1] = second compound 0.03 µM, first compound 0.0316 µM
[2] = second compound 0.03 µM, first compound 0.1 µM
[3] = second compound 0.03 µM, first compound 0.316 µM
[4] = second compound 0.03 µM, first compound 1 µM
[5] = second compound 0.0949 µM, first compound 0.0316 µM
[6] = second compound 0.0949 µM, first compound 0.1 µM
[7] = second compound 0.0949 µM, first compound 0.316 µM
[8] = second compound 0.0949 µM, first compound 1 µM
[9] = second compound 0.3 µM, first compound 0.0316 µM
[10] = second compound 0.3 µM, first compound 0.1 µM
[11] = second compound 0.3 µM, first compound 0.316 µM
[12] = second compound 0.3 µM, first compound 1 µM
[13] = second compound 0.949 µM, first compound 0.0316 µM
[14] = second compound 0.949 µM, first compound 0.1 µM
[15] = second compound 0.949 µM, first compound 0.316 µM
[16] = second compound 0.949 µM, first compound 1 µM
[17] = second compound 3 µM, first compound 0.0316 µM
[18] = second compound 3 µM, first compound 0.1 µM
[19] = second compound 3 µM, first compound 0.316 µM
[20] = second compound 3 µM, first compound 1 µM
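Also: spheroids exposed to compounds for seven days before readout.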

Row | Structure (SMILES) | IC50 (second compound 0.03 µM) | IC50 (second compound 0.0949 µM) | IC50 (second compound 0.3 µM) | IC50 (second compound 0.949 µM) | IC50 (second compound 3 µM) | viability, T/C [1] | viability, T/C [2] | viability, T/C [3] | viability, T/C [4] | viability, T/C [5] | viability, T/C [6] | viability, T/C [7] | viability, T/C [8] | viability, T/C [9] | viability, T/C [10] | viability, T/C [11] | viability, T/C [12] | viability, T/C [13] | viability, T/C [14] | viability, T/C [15] | other results
1 | C=C(F)C(=O)N1CCN(c2nc(OCC3CCCN3C)nc3c2CCN(c2cccc4cccc(Cl)c24)C3)CC1CC#N (stereo not given) + CCN1C(C(=O)NC23CCC(C(=O)O)(CC2)CC3)C(c2cccc(Cl)c2F)C2(C(=O)Nc3cc(Cl)ccc32)C12CCCCC2 | 2170 nM | 1660 nM | 1430 nM | 1890 nM | 1600 nM | 81% | 120% | 91.5% | 89.4% | 91.9% | 93.2% | 83.1% | 66.6% | 82.9% | 106% | 87% | 56.6% | 88.4% | 97.3% | 89.2% | viability, T/C (second compound 0.03 µM, first compound 3.16 µM): 30.9%; viability, T/C (second compound 0.03 µM, first compound 10 µM): 0.12%; viability, T/C (second compound 0.0949 µM, first compound 3.16 µM): 29.6%; viability, T/C (second compound 0.0949 µM, first compound 10 µM): 0.13%; viability, T/C (second compound 0.3 µM, first compound 3.16 µM): 28.5%; viability, T/C (second compound 0.3 µM, first compound 10 µM): 0.51%; viability, T/C [16]: 69.3%; viability, T/C (second compound 0.949 µM, first compound 3.16 µM): 33.8%; viability, T/C (second compound 0.949 µM, first compound 10 µM): 0.31%; viability, T/C [17]: 79.5%; viability, T/C [18]: 81.7%; viability, T/C [19]: 86.4%; viability, T/C [20]: 65.7%; viability, T/C (second compound 3 µM, first compound 3.16 µM): 25.3%; viability, T/C (second compound 3 µM, first compound 10 µM): 0.24%
2 | CNC(C)C(=O)NC1CN(S(=O)(=O)c2cccc(S(=O)(=O)N3CCC4CCC(C(=O)NC(c5ccccc5)c5ccccc5)N4C(=O)C(NC(=O)C(C)NC)C3)c2)CCC2CCC(C(=O)NC(c3ccccc3)c3ccccc3)N2C1=O (stereo not given) + CCN1C(C(=O)NC23CCC(C(=O)O)(CC2)CC3)C(c2cccc(Cl)c2F)C2(C(=O)Nc3cc(Cl)ccc32)C12CCCCC2 | 68.5 nM | 42.9 nM | 76.7 nM | 9.97 nM | 12.5 nM | 51.9% | 52% | 39.7% | 36.2% | 51.1% | 40.9% | 43.9% | 32.5% | 56.1% | 39.1% | 46% | 59.5% | 52.6% | 56.2% | 42% | viability, T/C (second compound 0.03 µM, first compound 0.00316 µM): 80.3%; viability, T/C (second compound 0.03 µM, first compound 0.01 µM): 65.6%; viability, T/C (second compound 0.0949 µM, first compound 0.00316 µM): 74.6%; viability, T/C (second compound 0.0949 µM, first compound 0.01 µM): 64.6%; viability, T/C (second compound 0.3 µM, first compound 0.00316 µM): 76.7%; viability, T/C (second compound 0.3 µM, first compound 0.01 µM): 80.9%; viability, T/C (second compound 0.949 µM, first compound 0.00316 µM): 92.7%; viability, T/C (second compound 0.949 µM, first compound 0.01 µM): 48.8%; viability, T/C [16]: 34.6%; viability, T/C (second compound 3 µM, first compound 0.00316 µM): 51.5%; viability, T/C (second compound 3 µM, first compound 0.01 µM): 54%; viability, T/C [17]: 38.8%; viability, T/C [18]: 36.8%; viability, T/C [19]: 23.5%; viability, T/C [20]: 54.1%
